The results in this text go back to patent US9137992B2, “Spinosyn-producing polyketide synthases” (DOW AGROSCIENCES LLC, priority 2002, dated 2015).

Data set [1] concerns insect. Put plainly: Insect control assays. As to conditions: in vivo.
The test system of data set [2] is tobacco budworm (Heliothis virescens) larvae. Put plainly: Topical assay on tobacco budworm larvae. As to conditions: acetone solution, 1 microg/larva, six larvae, mortality at end of two-day period, 21° C., 60% RH. In kind it is in vivo. The protocol: (§1) Biological activity of the compounds of the invention was shown by a topical assay in which the compound was applied to laboratory-reared larvae (mean weight 22 mg) at the rate of 1 microg/larva. Each compound was applied, in an acetone solution (1 mg/mL), along the dorsum of six tobacco budworm (Heliothis virescens) larvae and six beet armyworm (Spodoptera exigua) larvae. Treated larvae were then held for two days at 21° C., 60% RH in six-well plastic culture plates. Larvae were each supplied with a 1 cm^3 of agar-based Lepidoptera diet for sustenance during the two-day post-exposure interval. Percent mortality was determined at the end of a two-day period (Table 18).

The subject of data set [3] is beet armyworm (Spodoptera exigua) larvae. Put plainly: Topical assay on beet armyworm larvae. As to conditions: acetone solution, 1 microg/larva, six larvae, mortality at end of two-day period, 21° C., 60% RH. The format is in vivo. How it is done:
as §1

Molecules are shown by their SMILES.

With `CCC[C@H]1CCC[C@H](O[C@H]2CC[C@H](N(C)C)[C@@H](C)O2)[C@@H](C)C(=O)C2=C[C@@H]3[C@@H](C=C[C@@H]4C[C@@H](O[C@@H]5O[C@@H](C)[C@H](OC)[C@@H](OC)[C@H]5OC)C[C@@H]34)[C@@H]2CC(=O)O1` [21-desethyl-21-n-propyl spinosyn A], in data set [1], the “activity in insect control assays” value was “active”.

Take `CO[C@@H]1[C@@H](OC)[C@H](C)O[C@@H](O[C@H]2C[C@H]3[C@@H]4C=C5C(=O)[C@H](C)[C@@H](O[C@H]6CC[C@H](N(C)C)[C@@H](C)O6)CCC[C@H](C6CCC6)OC(=O)C[C@H]5[C@@H]4C=C(C)[C@@H]3C2)[C@@H]1OC` [Compound 4, 21-desethyl-21-cyclobutyl spinosyn D]: the “Tobacco Budworm Mortality (%)” value in data set [2] is 100%. Further, the “Beet Armyworm Mortality (%)” value in data set [3] is on record as 83%.

With `CO[C@@H]1[C@@H](OC)[C@H](C)O[C@@H](O[C@@H]2C[C@H]3CC[C@@H]4[C@@H](C=C5C(=O)[C@H](C)[C@@H](O[C@H]6CC[C@H](N(C)C)[C@@H](C)O6)CCC[C@H](C6CCC6)OC(=O)C[C@H]54)[C@@H]3C2)[C@@H]1OC` [Compound 8, 5,6-dihydro-21-desethyl-21-cyclobutyl spinosyn A], the “Tobacco Budworm Mortality (%)” value in data set [2] is listed as 100%. In data set [3], the “Beet Armyworm Mortality (%)” value was 83%.

As to `CO[C@@H]1[C@@H](OC)[C@H](C)O[C@@H](O[C@H]2C[C@H]3[C@@H]4C=C5C(=O)[C@H](C)[C@@H](O[C@H]6CC[C@H](N(C)C)[C@@H](C)O6)CCC[C@@H](C6CC6)OC(=O)C[C@H]5[C@@H]4C=C[C@@H]3C2)[C@@H]1OC` [Compound 1, 21-desethyl-21-cyclopropyl spinosyn A], the “Tobacco Budworm Mortality (%)” value in data set [2] is reported as 100%. Also, the “Beet Armyworm Mortality (%)” value in data set [3] is recorded as 33%.

Consider `CO[C@@H]1[C@@H](OC)[C@H](C)O[C@@H](O[C@H]2C[C@H]3[C@@H]4C=C5C(=O)[C@H](C)[C@@H](O[C@H]6CC[C@H](N(C)C)[C@@H](C)O6)CCC[C@H](C(C)C)OC(=O)C[C@H]5[C@@H]4C=C[C@@H]3C2)[C@@H]1OC` [Compound 9, 21-desethyl-21-isopropyl spinosyn A], for which the “Tobacco Budworm Mortality (%)” value in data set [2] was 100%. Besides, the “Beet Armyworm Mortality (%)” value in data set [3] is given as 100%. Further, in data set [1], the “activity in insect control assays” value was “active”.

With `CCC[C@H]1CCC[C@H](O[C@H]2CC[C@H](N(C)C)[C@@H](C)O2)[C@@H](C)C(=O)C2=C[C@@H]3[C@@H](C=C[C@@H]4C[C@@H](O[C@@H]5O[C@@H](C)[C@H](OC)[C@@H](OC)[C@H]5OC)C[C@@H]34)[C@@H]2CC(=O)O1` [Compound 23, 21-desethyl-21-n-propyl spinosyn A], the “Tobacco Budworm Mortality (%)” value in data set [2] is reported as 100%. Moreover, the “Beet Armyworm Mortality (%)” value in data set [3] came out at 100%.

For the compound `CO[C@@H]1[C@@H](OC)[C@H](C)O[C@@H](O[C@H]2C[C@H]3[C@@H]4C=C5C(=O)[C@H](C)[C@@H](O[C@H]6CC[C@H](N(C)C)[C@@H](C)O6)CCC[C@@H](C6CCC6)OC(=O)C[C@H]5[C@@H]4C=C[C@@H]3C2)[C@@H]1OC` [Compound 3, 21-desethyl-21-cyclobutyl spinosyn A], the “Tobacco Budworm Mortality (%)” value in data set [2] is listed as 83%. In data set [3], the “Beet Armyworm Mortality (%)” value came to 83%.
